Among the data in publication PMC10301845, “Characterization of a Novel M4 PAM PET Radioligand [11C]PF06885190 in Nonhuman Primates (NHP)” (Molecules, 2023) are Ki values, retold here.

The target in assay [1] is T1, M4 (Homo sapiens, UniProt P08173).
T1 sequence (P08173 1-479): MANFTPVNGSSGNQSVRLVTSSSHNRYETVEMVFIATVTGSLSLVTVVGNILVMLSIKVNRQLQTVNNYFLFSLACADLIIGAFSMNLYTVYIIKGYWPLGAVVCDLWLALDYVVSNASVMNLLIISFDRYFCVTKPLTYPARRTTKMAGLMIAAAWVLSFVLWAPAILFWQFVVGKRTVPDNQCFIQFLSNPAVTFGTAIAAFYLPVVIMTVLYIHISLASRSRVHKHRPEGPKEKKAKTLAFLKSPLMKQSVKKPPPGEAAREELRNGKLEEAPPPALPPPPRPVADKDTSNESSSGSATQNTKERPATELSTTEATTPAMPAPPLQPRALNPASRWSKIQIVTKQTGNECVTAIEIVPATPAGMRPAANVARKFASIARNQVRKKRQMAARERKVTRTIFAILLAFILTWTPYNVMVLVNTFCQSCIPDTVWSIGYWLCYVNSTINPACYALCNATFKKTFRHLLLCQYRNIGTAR
The assay is described as follows: human M4 binding affinity (evaluated by Pfizer). The settings on record: identified and evaluated by Pfizer.

Assay [2] has as its target T2, M4 (Rattus norvegicus, UniProt P08485).
T2 sequence (P08485 1-478): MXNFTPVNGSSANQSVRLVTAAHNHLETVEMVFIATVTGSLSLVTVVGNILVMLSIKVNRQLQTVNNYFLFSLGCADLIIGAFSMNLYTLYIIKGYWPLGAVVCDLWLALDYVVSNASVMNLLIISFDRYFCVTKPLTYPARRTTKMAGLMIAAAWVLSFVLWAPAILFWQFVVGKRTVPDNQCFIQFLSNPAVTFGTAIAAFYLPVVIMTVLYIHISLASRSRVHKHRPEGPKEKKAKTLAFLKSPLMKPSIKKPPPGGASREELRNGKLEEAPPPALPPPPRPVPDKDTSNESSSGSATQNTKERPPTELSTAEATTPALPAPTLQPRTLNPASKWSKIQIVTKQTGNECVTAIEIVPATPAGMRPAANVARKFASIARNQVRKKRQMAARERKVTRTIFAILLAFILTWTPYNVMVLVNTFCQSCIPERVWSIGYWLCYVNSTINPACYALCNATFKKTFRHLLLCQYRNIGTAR
The assay is described as follows: rat M4 binding affinity (evaluated by Pfizer). As to conditions: identified and evaluated by Pfizer.

The term Ki denotes the dissociation constant of the complex between target and ligand, obtained from inhibition or displacement. A lower Ki goes with higher affinity. For `CNc1nc(C)c(C)c2c1CN(C(=O)C[C@H]1C[C@@H]1c1ccc(F)nc1)C2` [PF06885190, 1-(6,7-dimethyl-4-(methylamino)-1,3-dihydro-2H-pyrrolo [3,4-c]pyridin-2-yl)-2-((1R,2S)-2-(6-fluoropyridin-3-yl)cyclopropyl)ethan-1-one], the inhibition constant (Ki) in assay [1] is 0.16 nM; in assay [2], 7.15 nM.
